{"source": "patent US12065512B2", "about": "“Cyclic peptide and a medicament, external preparation and cosmetic comprising said cyclic peptide” (Igisu Co., Ltd., priority 2015, dated 2024)", "tested_on": "nasal cavity", "assay": "Cyclic peptides with amino acid replacement: nasal effect (formulations A to E = 3, 15, 30, 100, 500 μg/ml in physiological saline, 0.1 ml)", "format": "in vivo, human", "details": "formulation C (30 μg/ml in physiological saline), once a day, 0.1 ml applied to each nasal cavity; subject with allergic rhinitis", "experimental": "Next, cyclic peptides with some replaced amino acid were subjected to following examination in order to confirm their effect. The methods for preparing the above cyclic peptide and confirming amino acid sequence of the prepared peptide were same as the method for preparing the cyclic peptide as described above and Mass spectroscopy method.\n9.3 Confirming Nasal Effect\nThe obtained cyclic peptide was prepared in physiological saline at 3, 15, 30, 100 or 500 μg/ml, and 0.1 ml each was applied to nasal cavity. Each of formulations A to E in the table indicates the concentration of the cyclic peptide at 3, 15, 30, 100 or 500 μg/ml, respectively. The absence of the effect upon the application of physiological saline without the peptide confirmed the effect was not a placebo effect.", "note": "Positions of bridges follow the written chain, without caps; N, C: chain ends. No end group written: not given here.", "data": [{"substance": "SEQ ID NO 34 (CFGRKMDRISSSSGVGC; disulfide 1-17)", "values": [{"measurement": "Itches after application", "value": "No irritating symptoms."}]}]}
